In PubChem BioAssay (NCI):
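Each compound was tested at five concentrations against cells in 96-well plates for 48 hours. Here, GI50 denotes the concentration required for 50% inhibition of growth. The concentration for full growth arrest is given as TGI.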

Legend:
Experiment in all cases: NCI tumour cell line growth inhibition, 48 h
ACHN renal = test system: ACHN renal
SR leukemia = test system: SR leukemia
CCRF-CEM leukemia = test system: CCRF-CEM leukemia
SF-295 CNS = test system: SF-295 CNS
HOP-62 NSCLC = test system: HOP-62 NSCLC
COLO 205 colon = test system: COLO 205 colon
M14 melanoma = test system: M14 melanoma
OVCAR-3 ovarian = test system: OVCAR-3 ovarian
T-47D breast = test system: T-47D breast
SK-OV-3 ovarian = test system: SK-OV-3 ovarian

| Compound | GI50 (ACHN renal) [µM] | TGI (ACHN renal) [µM] | GI50 (SR leukemia) [µM] | TGI (SR leukemia) [µM] | GI50 (CCRF-CEM leukemia) [µM] | TGI (CCRF-CEM leukemia) [µM] | GI50 (SF-295 CNS) [µM] | TGI (SF-295 CNS) [µM] | GI50 (HOP-62 NSCLC) [µM] | TGI (HOP-62 NSCLC) [µM] | GI50 (COLO 205 colon) [µM] | TGI (COLO 205 colon) [µM] | GI50 (M14 melanoma) [µM] | TGI (M14 melanoma) [µM] | GI50 (OVCAR-3 ovarian) [µM] | TGI (OVCAR-3 ovarian) [µM] | GI50 (T-47D breast) [µM] | TGI (T-47D breast) [µM] | GI50 (SK-OV-3 ovarian) [µM] | TGI (SK-OV-3 ovarian) [µM] |
| --- | --- | --- | --- | --- | --- | --- | --- | --- | --- | --- | --- | --- | --- | --- | --- | --- | --- | --- | --- | --- |
| COc1cc(C(=O)/C=C/c2cccnc2Nc2ccccc2)cc(OC)c1OC | 1.28 | 2.57 | 0.346 | > 100 | 0.321 | 1.19 | 1.87 | 3.78 | 0.657 | 1.88 | 1.29 | 2.62 | 1.5 | 2.92 | 0.429 | 1.48 | 1.43 | 3.07 | 1.6 | 2.94 |
| Nc1c(C(=O)Nc2ccccc2)sc2nc3c(cc12)CN(Cc1ccccc1)CC3 | 5.5 | > 100 | 13.1 | > 100 | 50.3 | > 100 | 5.45 | > 100 | 4.11 | 33.3 | 24 | > 100 | 30.8 | > 100 | 11.4 | > 100 | 16.2 | > 100 | 3.53 | > 100 |
| CN(C)CC1CCCCCC(CN(C)C)C1=O (stereo not given) | 1.07 | 2.64 | 2.1 | 7.14 | 1.38 | 3.87 | 19.7 | 47.2 | 13 | 27.3 | 1.2 | 2.68 | 1.19 | 11.9 | 1.48 | 5.05 | 2.12 | 12.5 | 27.9 | > 93.6 |
| CCNCCNc1cc(C2CCCCC2)c(C#N)c2nc3ccccc3n12 | 1.79 | 3.86 | 0.288 | 1.04 | 1.3 | 3.28 | 1.8 | 3.36 | 2.28 | 6.93 | 1.58 | 3.41 | 1.93 | 3.67 | 1.7 | 3.29 | 1.58 | 3.42 | 1.81 | 3.48 |
| CCN(CC)c1ccc(C(=N)c2ccc(N(C)C)cc2)cc1 | 2.34 | 12 | 0.301 | 2.8 | 1.96 | 97.8 | 0.161 | 2.88 | 1.55 | 12.2 | 0.197 | 3.06 | 0.167 | 2.06 | 0.156 | 4.07 | 1.27 | 9.42 | 2.15 | 10.4 |
| Nc1n[nH]c2ccc([C@@H]3Nc4ccc5[nH]ncc5c4[C@H]4C5C=CC(C5)[C@@H]34)cc12 (stereo not given in full) | 0.562 | 47.8 | 0.144 | > 100 | 0.342 | > 55.6 | 0.172 | 4.38 | 0.52 | 20.7 | 0.332 | 1.83 | 0.231 | 1.13 | 0.291 | 4.23 | 10.9 | 77.1 | 1.03 | 42.8 |
| CS(=O)(=O)Nc1ccc(N=Cc2c(O)[nH]c3ccccc23)cc1 | > 25 | > 25 | > 25 | > 25 | > 20 | > 25 | > 25 | > 25 | > 25 | > 25 | > 25 | > 25 | > 25 | > 25 | > 25 | > 25 | > 25 | > 25 | > 25 | > 25 |
| CSC1(SC2=NCCN2)SC2(NCCN2)S1 | – | 33.2 | – | 37.7 | – | 26.1 | – | 67.6 | – | 34.4 | – | 40.5 | – | 44.3 | – | 30.6 | – | 5.91 | – | 42 |
